In the assay the test system is L1210 leukemia ip in BDF1 mice, survival T/C. The assay can be described thus: NCI In Vivo Anticancer Drug Screen. Data for tumor model L1210 Leukemia (intraperitoneal) in B6D2F1 (BDF1) mice. The following applies: endpoint: mean survival time, higher = longer survival. The essentials:
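Mice bearing the transplanted tumor received compound or vehicle. Survival of the treated group was divided by that of the vehicle-treated control group to give the ratio.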

Setting [1] is: dose: 50.0 mg/kg/injection, schedule: Q01DX009 (ip), vehicle: Klucel (hydroxypropylcellulose) (HPC).
[2] abbreviates: dose: 100.0 mg/kg/injection, schedule: Q01DX001 (ip), vehicle: Klucel (hydroxypropylcellulose) (HPC).
Where [3] appears, read: dose: 100.0 mg/kg/injection, schedule: Q01DX009 (ip), vehicle: Klucel (hydroxypropylcellulose) (HPC).
Where [4] appears, read: dose: 200.0 mg/kg/injection, schedule: Q01DX001 (ip), vehicle: Klucel (hydroxypropylcellulose) (HPC).
[5] abbreviates: dose: 400.0 mg/kg/injection, schedule: Q01DX001 (ip), vehicle: Klucel (hydroxypropylcellulose) (HPC).
Where [6] appears, read: dose: 100.0 mg/kg/injection, schedule: Q04DX003 (ip), vehicle: Klucel (hydroxypropylcellulose) (HPC).
[7] abbreviates: dose: 200.0 mg/kg/injection, schedule: Q04DX003 (ip), vehicle: Klucel (hydroxypropylcellulose) (HPC).
[8] abbreviates: dose: 400.0 mg/kg/injection, schedule: Q04DX003 (ip), vehicle: Klucel (hydroxypropylcellulose) (HPC).
The mark [9] stands for this setting: dose: 25.0 mg/kg/injection, schedule: Q01DX009 (ip), vehicle: saline with Tween-80.
Setting [10] is: dose: 50.0 mg/kg/injection, schedule: Q01DX009 (ip), vehicle: saline with Tween-80.
Where [11] appears, read: dose: 100.0 mg/kg/injection, schedule: Q01DX009 (ip), vehicle: saline with Tween-80.
The mark [12] stands for this setting: dose: 100.0 mg/kg/injection, schedule: Q04DX003 (ip), vehicle: saline with Tween-80.
Where [13] appears, read: dose: 50.0 mg/kg/injection, schedule: Q01DX009 (ip), vehicle: saline.
[14] abbreviates: dose: 100.0 mg/kg/injection, schedule: Q01DX009 (ip), vehicle: saline.
Setting [15] is: dose: 100.0 mg/kg/injection, schedule: Q04DX002 (ip), vehicle: Klucel (hydroxypropylcellulose) (HPC).
Where [16] appears, read: dose: 200.0 mg/kg/injection, schedule: Q04DX002 (ip), vehicle: Klucel (hydroxypropylcellulose) (HPC).
[17] abbreviates: dose: 400.0 mg/kg/injection, schedule: Q04DX002 (ip), vehicle: Klucel (hydroxypropylcellulose) (HPC).
Setting [18] is: dose: 25.0 mg/kg/injection, schedule: Q04DX002 (ip), vehicle: saline.
Where [19] appears, read: dose: 50.0 mg/kg/injection, schedule: Q04DX002 (ip), vehicle: saline.
[20] abbreviates: dose: 100.0 mg/kg/injection, schedule: Q04DX002 (ip), vehicle: saline.

Among the data in PubChem BioAssay AID248 (DTP/NCI, 2004) are T/C values, retold here.

Values joined by “and” are separate entries in the source; they are usually repeats but may differ in a detail not shown here. Equal entries are not always repeated. Inconclusive results and toxic doses are left out.

Consider `O=C(O)C1CC2(CCC1c1ccccc1)SCCS2` (centres undefined), for which the T/C runs as follows: under setting [1], 95 % of control; under setting [2], 97 % of control; under setting [3], 93 % of control; under setting [4], 100 % of control; (dose: 200.0 mg/kg/injection, schedule: Q01DX009 (ip), vehicle: Klucel (hydroxypropylcellulose) (HPC)) 96 % of control; under setting [5], 96 % of control.
`NC(=S)N1N=C(c2ccccc2)CC1=O`: the T/C is, setting by setting: (dose: 75.0 mg/kg/injection, schedule: Q01DX001 (ip), vehicle: carboxymethylcellulose (CMC)) 107 % of control; (dose: 150.0 mg/kg/injection, schedule: Q01DX001 (ip), vehicle: carboxymethylcellulose (CMC)) 96 % of control; (dose: 300.0 mg/kg/injection, schedule: Q01DX001 (ip), vehicle: carboxymethylcellulose (CMC)) 96 % of control.
Take `CCC1([N+](=O)[O-])COP(=O)(NCc2ccncc2)OC1` (centres undefined): the T/C (dose: 100.0 mg/kg/injection, schedule: Q01DX001 (ip), vehicle: carboxymethylcellulose (CMC)) is 98 % of control; the T/C (dose: 200.0 mg/kg/injection, schedule: Q01DX001 (ip), vehicle: carboxymethylcellulose (CMC)) was 98 % of control; the T/C (dose: 400.0 mg/kg/injection, schedule: Q01DX001 (ip), vehicle: carboxymethylcellulose (CMC)) is 96 % of control.
Consider `COc1cc([N+](=O)[O-])ccc1NC(=O)Nc1cccc(C(F)(F)F)c1`, for which the T/C is, setting by setting: (dose: 100.0 mg/kg/injection, schedule: Q01DX009 (ip), vehicle: gum acacia) 92 % of control; (dose: 200.0 mg/kg/injection, schedule: Q01DX009 (ip), vehicle: gum acacia) 92 % of control.
As for `Cc1cc(N(CCCl)CCCl)ccc1C=Nc1cc(Cl)ccc1-n1ccnc1C`, the T/C (dose: 50.0 mg/kg/injection, schedule: Q04DX003 (ip), vehicle: Klucel (hydroxypropylcellulose) (HPC)) was 98 % of control; the T/C under setting [6] was 98 % of control; the T/C under setting [7] is 101 % of control; the T/C under setting [8] is 90 % of control.
With `Cc1cc(Cl)c(OC(=O)Nc2ccccc2F)cc1C`, the T/C is, setting by setting: under setting [9], 106 % of control; under setting [10], 114 % of control; under setting [11], 103 % of control and 105 % of control.
In the case of `CCCCCCCCCCC1CCCC1`, the T/C runs as follows: (dose: 100.0 mg/kg/injection, schedule: Q04DX002 (ip), vehicle: saline with Tween-80) 94 % of control; (dose: 200.0 mg/kg/injection, schedule: Q04DX002 (ip), vehicle: saline with Tween-80) 98 % of control; (dose: 400.0 mg/kg/injection, schedule: Q04DX002 (ip), vehicle: saline with Tween-80) 94 % of control.
On to `CCCCC(c1nc2c(c3c1CCCC3)CCCC2)C(O)(C(F)(F)F)C(F)(F)F` (centres undefined), for which the T/C is, setting by setting: under setting [9], 102 % of control; under setting [10], 104 % of control; under setting [11], 93 % of control and 87 % of control; under setting [12], 97 % of control; (dose: 200.0 mg/kg/injection, schedule: Q01DX009 (ip), vehicle: saline with Tween-80) 89 % of control; (dose: 200.0 mg/kg/injection, schedule: Q04DX003 (ip), vehicle: saline with Tween-80) 100 % of control. The T/C (dose: 400.0 mg/kg/injection, schedule: Q04DX003 (ip), vehicle: saline with Tween-80) was 102 % of control.
`COc1cc2c(cc1C)OC(C)(CC(=O)O)C2` (centres undefined): the T/C reads like this: under setting [2], 103 % of control; under setting [4], 96 % of control; under setting [5], 96 % of control.
As for `Cn1c(O)c(N)c(=O)n(C)c1=O`, the T/C was 98 % of control under setting [13] and 92 % of control under setting [14].
As for `CCCCCCCCCCCCCOc1ccc(S(=O)(=O)/N=C(\N)NC(N)=NCCCCCCCCCCCC)cc1`, the T/C under setting [15] was 93 % of control, the T/C under setting [16] is 93 % of control and the T/C under setting [17] was 86 % of control.
As for `NC1=NCCS1`, the T/C by setting is: under setting [18], 103 % of control; under setting [19], 110 % of control; under setting [20], 95 % of control and 103 % of control.
Turning to `C=CCC/C(=N\NC(N)=O)c1ccccc1`, the T/C by setting is: (dose: 75.0 mg/kg/injection, schedule: Q01DX001 (ip), vehicle: acetone) 99 % of control; (dose: 150.0 mg/kg/injection, schedule: Q01DX001 (ip), vehicle: acetone) 91 % of control; (dose: 300.0 mg/kg/injection, schedule: Q01DX001 (ip), vehicle: acetone) 110 % of control.
Regarding `O=C(CCN1CCCCC1)c1cc(Cl)ccc1Cl`, the T/C runs as follows: (dose: 12.5 mg/kg/injection, schedule: Q01DX009 (ip), vehicle: saline) 93 % of control; (dose: 25.0 mg/kg/injection, schedule: Q01DX009 (ip), vehicle: saline) 97 % of control and 98 % of control; under setting [18], 103 % of control; under setting [13], 93 % of control; under setting [19], 98 % of control; under setting [14], 91 % of control. For the same compound, the T/C under setting [20] was 100 % of control and 88 % of control.
Take `C=C1C(=O)OCC2(CC)CCCCC12` (centres undefined): the T/C (dose: 20.0 mg/kg/injection, schedule: Q01DX009 (ip), vehicle: saline with Tween-80) is 103 % of control; the T/C (dose: 40.0 mg/kg/injection, schedule: Q01DX009 (ip), vehicle: saline with Tween-80) was 106 % of control; the T/C (dose: 80.0 mg/kg/injection, schedule: Q01DX009 (ip), vehicle: saline with Tween-80) is 91 % of control; the T/C (dose: 160.0 mg/kg/injection, schedule: Q01DX009 (ip), vehicle: saline with Tween-80) is 98 % of control.
Take `O=c1cc(Sc2ccccc2)[nH]c(=O)[nH]1`: the T/C reads like this: under setting [6], 96 % of control; under setting [7], 105 % of control; under setting [8], 102 % of control.
Consider `COc1cc2c(cc1OC)C13CCN4CC5=CCOC6CCN2C1C6C5CC43` (centres undefined), for which the T/C reads like this: (dose: 25.0 mg/kg/injection, schedule: Q04DX003 (ip), vehicle: saline) 101 % of control; (dose: 50.0 mg/kg/injection, schedule: Q04DX003 (ip), vehicle: saline) 109 % of control; under setting [12], 86 % of control; (dose: 100.0 mg/kg/injection, schedule: Q04DX003 (ip), vehicle: saline) 106 % of control.
On to `CCC1CN2CCc3cc(OC)c(OC)cc3C2CC1CC1NCCc2cc(OC)c(OC)cc21` (centres undefined), for which the T/C by setting is: (dose: 2.0 mg/kg/injection, schedule: Q04DX003 (ip), vehicle: water) 93 % of control; (dose: 4.0 mg/kg/injection, schedule: Q04DX003 (ip), vehicle: water) 98 % of control; (dose: 8.0 mg/kg/injection, schedule: Q04DX003 (ip), vehicle: water) 94 % of control; (dose: 16.0 mg/kg/injection, schedule: Q04DX003 (ip), vehicle: water) 104 % of control; (dose: 32.0 mg/kg/injection, schedule: Q04DX003 (ip), vehicle: water) 102 % of control; (dose: 64.0 mg/kg/injection, schedule: Q04DX003 (ip), vehicle: water) 100 % of control.
Regarding `Cc1cc(OCCOC(=O)Nc2ccccc2C(F)(F)F)cc(C)c1Cl`, the T/C is 89 % of control under setting [15], 101 % of control under setting [16] and 92 % of control under setting [17].
`CC(=O)OC12C(=O)OC(=O)C1(C)C1c3ccccc3C2c2ccccc21` (centres undefined): the T/C by setting is: (dose: 25.0 mg/kg/injection, schedule: Q01DX009 (ip), vehicle: Klucel (hydroxypropylcellulose) (HPC)) 111 % of control; under setting [1], 106 % of control; under setting [3], 98 % of control.
For `O=P1(N(CCCl)CCCl)NC(OO)CCO1` (centres undefined), the T/C (dose: 200.0 mg/kg/injection, schedule: Q01DX001 (ip), vehicle: DMSO) was 270 % of control.
Consider `CCOC(=O)/C(C#N)=C1/CCCN1`, for which the T/C was 97 % of control under setting [14]; 100 % of control (dose: 200.0 mg/kg/injection, schedule: Q01DX009 (ip), vehicle: saline); 108 % of control (dose: 400.0 mg/kg/injection, schedule: Q01DX009 (ip), vehicle: saline).
